# How the values were obtained:
# [1] = tested on: Collagenase-1 (Matrix Metalloproteinase-1, MMP-1); test: Inhibition of UV-induced Collagenase-1 (MMP-1) production in human fibroblasts (ELISA kit); type: cell-based; conditions: 15 mJ UV, 20 μM flavones, 20 μg/ml ethanol extract, FIG. 11
# Description: (§1) Firstly, human fibroblasts were placed in a 96-well microtiter plate (5,000 cells/well) containing DMEM (Dulbecco's Modified Eagle's Media) which comprises 2.5% bovine fetal serum, and cultured until they reached a growth rate of around 90%. Then, the cells were treated for 24 hours in serum-free DMEM containing 20 μM of 5,7-dimethoxyflavone, 20 μM 5,7,4′-trimethoxyflavone, 20 μM 3,5,7,3′,4′-pentamethoxyflavone and 20 μg/ml of the ethanol extract of Kaempferia parviflora of Examples 1-4, respectively, and followed by the exposure to 15 mJ of UV. Subsequently, the cells were additionally treated with serum-free DMEM containing 20 μM of 5,7-dimethoxyflavone, 20 μM 5,7,4′-trimethoxyflavone, 20 μM 3,5,7,3′,4′-pentamethoxyflavone and 20 μg/ml of the ethanol extract of Kaempferia parviflora of Examples 1-4, respectively. After 24 hours, the cell culture was collected and centrifuged to obtain the supernatant.
# For the resulting supernatant, the degree of Collagenase-1 (MMP-1) production was observed by Collagenase-1 Measurement Kit (QIA55, Merch & Co., USA). Firstly, the above obtained cell culture was placed in a 96-well plate evenly coated with primary antibodies against Collagenase-1 (MMP-1), followed by antigen-antibody reaction for 2 hours at room temperature. After 2 hours, primary antibodies against collagen with fluorescence were added to the said 96-well plate for 1 hour. After 1 hour, a substance inducing color formation was added and left for 30 minutes at room temperature. Then, a termination buffer was added to discontinue the color formation, resulting in the formation of yellow color. The degree of yellow color varied depending on the degree of the said reaction process. Absorbance of the 96-well plate showing yellow color was measured with an absorptiometer at 450 nm.
# [2] = tested on: Procollagen Type-I C Peptide (PIP); test: Enhancing effect on collagen production (Procollagen Type-I C Peptide ELISA) in UV-exposed human fibroblasts; type: cell-based; conditions: 15 mJ UV, 20 μM flavones, 20 μg/ml ethanol extract, PIP in supernatant
# Description: as §1, with “supernatant. For the obtained supernatant, the production of Procollagen Type-I C Peptide (PIP), an indicator of collagen production, was quantitatively measured by ELISA kit (MK101, Takara Bio Ink., Japan) so as to observe their effect on collagen production.” for “supernatant.”
# Firstly, antibody-PIP conjugates tagged to peroxidase were added to a 96-well plate evenly coated with mouse monoclonal antibodies against Procollagen. Then, the above obtained cell culture was added and reacted for 3 hours in an incubator, followed by the addition of substrate solution for color formation. Upon staying for 15 minutes at room temperature, the reaction was ended after the addition of reaction termination solution. Absorbance was measured with an absorptiometer at 450 nm.
# [3] = tested on: hairless mice (Hos: HR-1); test: In vivo improvement of UV-induced wrinkles, application onto the skin (skin replicas, Skin Visiometer); conditions: UV-exposed hairless mice; for wrinkle formation (skin replicas) in comparison with UV-treated Group: 50 μL applied onto the back every day for 8 weeks, FIG. 12; for Rt, Rm, Rz and Ra values (degree of wrinkle formation): skin application for 8 weeks, p<0.05, FIGS. 13A-13D
# Description: (§2) Forty eight (48) 6-week-old female hairless mice (Hos: HR-1) were accustomed for a week and randomly divided into six (6) groups, eight (8) mice per each group. The hairless mice were exposed to UV for 8 weeks. UV irradiation was carried out 3 times a week, while the amount of UV irradiation was increased from 1 MED (1 MED=50 mJ/cm^2) to 4 MED which was then kept until the end of the test. Test groups were divided into a total of six groups, i.e. Non UV-treated Group, UV-treated Group, UV+5,7-dimethoxyflavone-treated Group, UV+5,7,4′-trimethoxyflavone-treated Group, UV+3,5,7,3′,4′-pentamethoxyflavone-treated Group, and UV+ethanol extract of Kaempferia parviflora-treated Group. Each sample was dissolved in a mixture solvent of ethanol and polyethylene glycol (7:3, v/v), and 50 μL of each sample was applied onto the back of the mice every day for 8 weeks. For the Non UV-treated group and the UV-treated group, 50 μL of a mixture of ethanol and polyethylene glycol (7:3, v/v) was applied. In order to test the preventative effect of wrinkle formation, skin replicas were taken using silicone polymer (SILFLO Impression Material, Flexico, England). The image files of the skin replicas were subjected to wrinkle evaluation using the computer imaging analysis system, i.e. Skin Visiometer SV 600 software (Courage+Khazaha Electronic, Kln, Germany). Rt, Rm, Rz and Ra values (Rt: the distance from the highest and lowest portions on the skin surface, Rm: the maximum Rt value among five (5) measurements, Rz: the mean Rt value of five measurements, Ra: the arithmetic mean value of surface roughness) were determined The results are shown in FIGS. 12 and 13A to 13D.
# [4] = tested on: hairless mice (Hos: HR-1); test: In vivo improvement of UV-induced wrinkles, oral administration (skin replicas, Skin Visiometer); conditions: UV-exposed hairless mice, oral daily for 8 weeks, flavones 50 mg/kg/day, extract 200 mg/kg/day; for wrinkle formation (skin replicas) compared with UV-treated Group: FIG. 14; for Rt, Rm, Rz and Ra values (degree of wrinkle formation): p<0.05, FIGS. 15A-15D
# Description: (§3) To the hairless mice exposed to UV in Example 7-1,5,7-dimethoxyflavone (50 mg/kg/day), 5,7,4′-trimethoxyflavone (50 mg/kg/day), 3,5,7,3′,4′-pentamethoxyflavone (50 mg/kg/day) and the ethanol extract of Kaempferia parviflora (200 mg/kg/day) dissolved in 0.5% carboxymethyl cellulose solution containing 5% Tween 80 were orally administered daily for 8 weeks. For the control groups (Non UV-treated Group and UV-treated Group), 0.5% carboxymethyl cellulose solution was administered. In order to test the preventative effect of wrinkle formation, skin replicas were taken using silicone polymer (SILFLO Impression Material, Flexico, England). The image files of the skin replicas were subjected to wrinkle evaluation using the computer imaging analysis system, i.e. Skin Visiometer SV 600 software (Courage+Khazaha Electronic, Kln, Germany).
# [5] = tested on: hairless mice (Hos: HR-1); test: UV-induced Trans-Epidermal Water Loss (TEWL), application onto the skin (Tewameter); type: in vivo; conditions: UV-exposed hairless mice, skin application for 8 weeks; back skin
# Description: as §2
# By using Tewameter (TM 300, Courage+Khazaha Electronic, Kln, Germany), Trans-Epidermal Water Loss (TEWL) was measured on the back of the mice in Example 7-1.
# [6] = tested on: hairless mice (Hos: HR-1); test: UV-induced Trans-Epidermal Water Loss (TEWL), oral administration (Tewameter); type: in vivo; conditions: UV-exposed hairless mice, oral daily for 8 weeks; flavones 50 mg/kg/day, extract 200 mg/kg/day
# Description: as §3
# By using Tewameter (TM 300, Courage+Khazaha Electronic, Kln, Germany), Trans-Epidermal Water Loss (TEWL) was measured on the back of the mice in Example 7-2.
# [7] = tested on: hairless mice (Hos: HR-1); test: Skin elasticity, application onto the skin (Cutometer); type: in vivo; conditions: UV-exposed hairless mice, skin application for 8 weeks; Non UV-treated Group = 100
# Description: as §2
# By using Cutometer (MPA 580, Courage+Khazaha Electronic, Germany), skin elasticity was measured on the back of the mice in the above Example 7-1 and compared with Non UV-treated Group.
# [8] = tested on: hairless mice (Hos: HR-1); test: Skin elasticity, oral administration (Cutometer); type: in vivo; conditions: UV-exposed hairless mice, oral daily for 8 weeks; flavones 50 mg/kg/day, extract 200 mg/kg/day; Non UV-treated Group = 100
# Description: as §3
# By using Cutometer (MPA 580, Courage+Khazaha Electronic, Germany), skin elasticity was measured on the back of the mice in Example 7-2 and compared with Non UV-treated Group.
Structure (SMILES),inhibition of Collagenase-1 (MMP-1) activity induced by UV light [1],Content of Collagen [2] [ng/10^5 cell],wrinkle formation (skin replicas) in comparison with UV-treated Group [3],"Rt, Rm, Rz and Ra values (degree of wrinkle formation) [3]",wrinkle formation (skin replicas) compared with UV-treated Group [4],"Rt, Rm, Rz and Ra values (degree of wrinkle formation) [4]",TEWL [5] [g/m^2/hr],TEWL [6] [g/m^2/hr],Degree of skin elasticity [7] [%],Degree of skin elasticity [8] [%]
"COc1cc(OC)c2c(=O)c(OC)c(-c3ccc(OC)c(OC)c3)oc2c1 [3,5,7,3′,4′-pentamethoxyflavone]",excellent for inhibiting Collagenase-1 (MMP-1) activity,226.5,remarkable decrease in wrinkle formation,significantly reduced,remarkable decrease in wrinkle formation,significantly reduced,22.0,20.3,72.3,81.7
"COc1ccc(-c2cc(=O)c3c(OC)cc(OC)cc3o2)cc1 [5,7,4′-trimethoxyflavone]",excellent for inhibiting Collagenase-1 (MMP-1) activity,230.0,remarkable decrease in wrinkle formation,significantly reduced,remarkable decrease in wrinkle formation,significantly reduced,24.8,19.6,76.9,85.6
"COc1cc(OC)c2c(=O)cc(-c3ccccc3)oc2c1 [5,7-dimethoxyflavone]",excellent for inhibiting Collagenase-1 (MMP-1) activity,236.7,remarkable decrease in wrinkle formation,significantly reduced,remarkable decrease in wrinkle formation,significantly reduced,19.4,16.4,83.5,77.3

# From patent US20140148504A1, “NOVEL USE OF FLAVONE-BASED COMPOUND” (Industry-Academic Cooperation Foundation, Younsei University, priority 2011, published 2014)
